What was measured:
[1] = test system: male Sprague Dawley rats; experiment: carrageenan-induced edema test in the paw (antiedematous activity); format: in vivo, rat; settings: for % inhibition: paw volume increase at 3rd hour
Procedure: The study was conducted on male Sprague Dawley rats, weighing about 160 ± 10 gr. An evaluation was made of the activity of the isopropyl ester of GM₁ ganglioside (AGF₄₄) and GM₁ in inhibiting the formation of edema following injection of a sterile aqueous solution of 1% carrageenan into the plantar aponeurosis of the right hand paw (0.1 ml/rat). To study administration by oral, subcutaneous and intraparitoneal routes, AGF₄₄ and GM₁ (solubilized in 10 ml/kg of sterile saline physiological solution) were compared to indomethacin as a comparison compound. For study of the oral route, each compound was administered by oral route one hour before injection of carrageenan. For study of the subcutaneous and intraperitoneal routes, each compound was administered 30 minutes before the same. To study topical administration, AGF₄₄ and GM₁ (as 0.1% aqueous gels) were compared to 5% Artrosilene gel (ketoprefene lysine salt). Each compound was applied locally to the right paw, and administration was effected twice, one hour before and immediately after injection of carrageenan, massaging lightly for 30 seconds to ensure complete absorption. The control groups received saline physiological solution (10 ml/kg) and placebo gel (0.2-0.4 ml/rat twice) respectively. Plethysmometric evaluation of the volume of the right paw was effected immediately before sub-plantar injection of carrageenan an 3 hours after the same. The antiedematous effect of the treatment was calculated by evaluating the average increase in paw volume at the 3rd hour (compared to time 0) based on control values.

[2] = test system: Sprague-Dawley rats; experiment: acetic acid-induced peritonitis test (antiexudative activity); format: in vivo, rat; settings: for % inhibition: peritoneal exudate
Procedure: The study was conducted on Sprague-Dawley rats, weighing between 200 and 300 gr. An evaluation was made of the capacity of the isopropyl ester of GM₁ ganglioside (hereafter known as AGF₄₄) and GM₁ itself, to inhibit the formation of peritoneal exudate following intraperitoneal injection (10 ml/kg) of a 0.5% acetic acid solution. To study administration by oral, subcutaneous and intraperitoneal routes, AGF₄₄ and GM₁ (solubilized in 10 ml/kg of sterile saline physiological solution) and a comparison compound indomethacin were administered by the individual routes one hour before the injection of acetic acid. To study topical administration, one hour before i.p. injection of acetic acid, AGF₄₄ and GM₁ in the form of 0.1% aqueous gels and the comparison 5% Artrosilene gel (ketoprofen lysine salt) were applied to the right paws with a light massage for 30 seconds to ensure complete absorption of the gel. The control groups received saline physiological solution (10 ml/kg) and placebo gel (0.2 ml/rat), respectively. 30 minutes after exudate inducement the animals were sacrificed, samples were taken of the peritoneal exudate and the percentage of inhibition of the same in relation to control values was calculated.

[3] = intraperitoneal, 1 mg/kg, 30 minutes before carrageenan
[4] = intraperitoneal, 5 mg/kg, 30 minutes before carrageenan
[5] = oral, 1 mg/kg, one hour before 1% carrageenan
[6] = oral, 5 mg/kg, one hour before carrageenan
[7] = subcutaneous, 1 mg/kg, 30 minutes before carrageenan
[8] = subcutaneous, 5 mg/kg, 30 minutes before carrageenan
[9] = intraperitoneal, 1 mg/kg, one hour before acetic acid
[10] = oral, 1 mg/kg, one hour before i.p. 0.5% acetic acid (10 ml/kg)
[11] = oral, 2.5 mg/kg, one hour before acetic acid
[12] = subcutaneous, 1 mg/kg, one hour before acetic acid
[13] = subcutaneous, 2.5 mg/kg, one hour before acetic acid
[14] = intraperitoneal, 2 mg/kg, 30 minutes before carrageenan
[15] = oral, 2 mg/kg, one hour before carrageenan
[16] = subcutaneous, 2 mg/kg, 30 minutes before carrageenan
[17] = intraperitoneal, 2.5 mg/kg, one hour before acetic acid
[18] = topical to right paw, 0.1% gel 0.2 ml/rat, 1.4 mg/kg, one hour before acetic acid

| Compound | % inhibition [1, 3] [%] | % inhibition [1, 4] [%] | % inhibition [1, 5] [%] | % inhibition [1, 6] [%] | % inhibition [1, 7] [%] | % inhibition [1, 8] [%] | % inhibition [2, 9] [%] | % inhibition [2, 10] [%] | % inhibition [2, 11] [%] | % inhibition [2, 12] [%] | % inhibition [2, 13] [%] | % inhibition [1, 14] [%] | % inhibition [1, 15] [%] | % inhibition [1, 16] [%] | % inhibition [2, 17] [%] | % inhibition [2, 18] [%] | other results |
| --- | --- | --- | --- | --- | --- | --- | --- | --- | --- | --- | --- | --- | --- | --- | --- | --- | --- |
| COc1ccc2c(c1)c(CC(=O)O)c(C)n2C(=O)c1ccc(Cl)cc1 [Indomethacin, indomethacin, reference compound] | 23 | 67 | 22 | 67 | 30 | 60 | 70 | 74 | 90 | 64 | 84 | – | – | – | – | – | – |
| GM₁ ganglioside [GM1, reference compound] | – | 30 | – | 32 | – | 31 | 47 | 56 | 63 | 44 | 52 | 20 | 20 | 19 | 51 | 30 | % inhibition ([1]; topical, 0.1% gel 0.2 ml/rat/twice, dose in mg/kg not given): 20% |
| isopropyl ester of GM₁ ganglioside [GM1 isopropyl ester] | 18 | 57 | 20 | 60 | 25 | 50 | 55 | 70 | 72 | 47 | 61 | 32 | 32 | 30 | 60 | 43 | antiinflammatory activity ([1]; at doses of over 10 mg/kg): it diminishes at doses of over 10 mg/kg; Maximum efficacy (inhibition) ([1]; by oral route): 50-60%; % inhibition ([1]; topical, 0.1% gel 0.2 ml/rat/twice, 1.25 x 2 mg/kg): 32%; % inhibition ([1]; topical, 0.1% gel 0.4 ml/rat/twice, 2.5 x 2 mg/kg): 43%; Peritoneal exudate inhibition ([2]; after oral administration): 70-80%; antiexudative efficacy ([2]; at doses of less than 0.1 mg/kg (in the order of 0.1 mg/kg)): efficacious; antiexudative activity ([2]; at doses of over 10 mg/kg): the activity decreases; antiexudative activity compared with indomethacin ([2]; oral, at 1 mg/kg): comparable to that of indomethacin; % inhibition ([2]; intraperitoneal, 5 mg/kg, one hour before acetic acid): 64%; % inhibition ([2]; oral, 5 mg/kg, one hour before acetic acid): 77%; % inhibition ([2]; subcutaneous, 5 mg/kg, one hour before acetic acid): 70% |

— patent EP0351784A2, “Therapeutic use of the isopropyl ester derivative of monosialoganglioside in nervous pathologies with an inflammatory component” (FIDIA S.p.A., priority 1988, dated 1990)
